Measured values reported in ChEMBL document CHEMBL4831488, “Design, synthesis, docking, molecular dynamics and bioevaluation studies on novel N-methylpicolinamide and thienopyrimidine derivatives with inhibiting NF-κB and TAK1 activities: Cheminformatics tools RDKit applied in drug design” (Eur J Med Chem, 2021).
Active and inactive are the calls of the source. The rule behind the calls is not given here.

How the values were obtained:
A549 [1] = test: Induction of apoptosis in human A549 cells assessed as viable cells at 1.2 uM measured by annexinV-FITC/propidium iodide staining based flow cytometry analysis (reference value: 97.8%); format: functional; conditions: read-out: Activity
A549 [2] = test: Cell cycle arrest in human A549 cells assessed as accumulation at S phase at 0.6 uM measured after 24 hrs by PI staining based Flow cytometry method (reference value: 34.24%); format: functional
A549 [3] = test: Induction of apoptosis in human A549 cells assessed as necrotic cells at 0.6 uM measured by annexinV-FITC/propidium iodide staining based flow cytometry analysis (reference value: 0.42%); format: functional
HCT-116 [4] = test: Cell cycle arrest in human HCT-116 cells assessed as accumulation at G2/M phase at 1.8 uM measured after 24 hrs by PI staining based Flow cytometry method; format: functional
A549 [5] = test: Induction of apoptosis in human A549 cells assessed as late apoptotic cells at 1.8 uM measured by annexinV-FITC/propidium iodide staining based flow cytometry analysis (reference value: 0.64%); format: functional
TAK1-TAB1 fusion protein = TAK1-TAB1 fusion protein (Homo sapiens, UniProt O43318); test: Inhibition of Tak1/Tab1 (unknown origin) assessed as inhibition of Tak1 kinase activity preincubated for 30 mins followed by addition of MBP protein and ATP and measured after 2 hrs by ADP-Glo kinase assay
Sequence of TAK1-TAB1 fusion protein (O43318 whole entry, looked up, the tested form may be a part): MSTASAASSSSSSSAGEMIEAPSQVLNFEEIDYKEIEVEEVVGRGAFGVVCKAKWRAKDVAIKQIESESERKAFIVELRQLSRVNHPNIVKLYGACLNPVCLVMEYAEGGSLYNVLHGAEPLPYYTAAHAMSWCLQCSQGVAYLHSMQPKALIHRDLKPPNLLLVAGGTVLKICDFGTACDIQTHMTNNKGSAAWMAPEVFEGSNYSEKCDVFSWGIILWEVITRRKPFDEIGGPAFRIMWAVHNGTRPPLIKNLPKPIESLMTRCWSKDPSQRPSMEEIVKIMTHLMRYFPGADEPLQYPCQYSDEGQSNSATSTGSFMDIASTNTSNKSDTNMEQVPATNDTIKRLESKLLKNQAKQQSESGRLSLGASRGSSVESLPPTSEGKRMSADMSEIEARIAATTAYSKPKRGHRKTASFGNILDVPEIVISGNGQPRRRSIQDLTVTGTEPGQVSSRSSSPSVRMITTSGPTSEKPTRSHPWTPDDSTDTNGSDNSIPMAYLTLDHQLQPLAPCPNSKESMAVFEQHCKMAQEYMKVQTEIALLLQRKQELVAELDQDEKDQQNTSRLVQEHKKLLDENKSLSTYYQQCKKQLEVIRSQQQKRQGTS

A549 [6] = test: Induction of apoptosis in human A549 cells assessed as necrotic cells at 1.8 uM measured by annexinV-FITC/propidium iodide staining based flow cytometry analysis (reference value: 0.42%); format: functional
A549 [7] = test: Induction of apoptosis in human A549 cells assessed as early apoptotic cells at 1.8 uM measured by annexinV-FITC/propidium iodide staining based flow cytometry analysis (reference value: 1.17%); format: functional
A549 [8] = test: Cell cycle arrest in human A549 cells assessed as accumulation at G0/G1 phase at 1.8 uM measured after 24 hrs by PI staining based Flow cytometry method (reference value: 55.54%); format: functional
A549 [9] = test: Cell cycle arrest in human A549 cells assessed as accumulation at S phase at 1.8 uM measured after 24 hrs by PI staining based Flow cytometry method (reference value: 34.24%); format: functional
A549 [10] = test: Cytotoxicity against human A549 cells assessed as inhibition of cell growth at 20 uM measured after 72 hrs by MTT assay relative to control; format: functional
A549 [11] = test: Induction of apoptosis in human A549 cells assessed as late apoptotic cells at 1.2 uM measured by annexinV-FITC/propidium iodide staining based flow cytometry analysis (reference value: 0.64%); format: functional
A549 [12] = test: Cell cycle arrest in human A549 cells assessed as accumulation at G2/M phase at 0.6 uM measured after 24 hrs by PI staining based Flow cytometry method (reference value: 10.2%); format: functional
[13] = biological target: T1, Nuclear factor NF-kappa-B complex (Homo sapiens) (UniProt Q00653+P19838+Q04206); test: Inhibition of human NF-kB in human HCT-116 cells assessed as suppression of TNF-alpha induced TAK1 expression at 0.5 to 5 uM pretreated with compounds for 24 hrs followed by TNF-alpha stimulation for 10 mins by Western blot analysis; format: cell-based; conditions: dose 0.5-5 µM, time 1450.0 min
T1 sequence (P19838 whole entry, looked up): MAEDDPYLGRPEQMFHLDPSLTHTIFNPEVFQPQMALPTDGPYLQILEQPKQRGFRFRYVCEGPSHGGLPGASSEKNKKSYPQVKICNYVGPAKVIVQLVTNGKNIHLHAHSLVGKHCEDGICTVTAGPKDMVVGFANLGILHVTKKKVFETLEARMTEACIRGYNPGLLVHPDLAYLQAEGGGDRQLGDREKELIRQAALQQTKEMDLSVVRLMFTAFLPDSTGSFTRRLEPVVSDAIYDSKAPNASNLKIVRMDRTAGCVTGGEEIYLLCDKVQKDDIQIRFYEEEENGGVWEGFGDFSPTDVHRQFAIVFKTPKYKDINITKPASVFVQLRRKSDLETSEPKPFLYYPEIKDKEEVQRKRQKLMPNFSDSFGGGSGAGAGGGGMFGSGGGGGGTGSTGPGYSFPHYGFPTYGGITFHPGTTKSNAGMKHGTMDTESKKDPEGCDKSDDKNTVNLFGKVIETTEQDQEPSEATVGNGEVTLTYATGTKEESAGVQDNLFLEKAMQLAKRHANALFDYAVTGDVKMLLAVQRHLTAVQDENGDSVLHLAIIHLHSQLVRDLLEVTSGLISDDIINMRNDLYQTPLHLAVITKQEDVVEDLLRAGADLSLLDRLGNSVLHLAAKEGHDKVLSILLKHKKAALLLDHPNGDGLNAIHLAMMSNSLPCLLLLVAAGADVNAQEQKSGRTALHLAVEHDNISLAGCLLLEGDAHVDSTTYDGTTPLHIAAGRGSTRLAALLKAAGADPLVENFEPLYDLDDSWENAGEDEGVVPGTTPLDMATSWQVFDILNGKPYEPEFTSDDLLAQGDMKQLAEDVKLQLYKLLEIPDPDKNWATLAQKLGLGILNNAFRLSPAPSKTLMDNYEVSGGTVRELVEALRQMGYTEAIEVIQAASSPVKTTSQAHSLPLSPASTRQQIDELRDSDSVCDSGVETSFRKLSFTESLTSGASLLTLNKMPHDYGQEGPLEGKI
T1 sequence (Q00653 whole entry, looked up): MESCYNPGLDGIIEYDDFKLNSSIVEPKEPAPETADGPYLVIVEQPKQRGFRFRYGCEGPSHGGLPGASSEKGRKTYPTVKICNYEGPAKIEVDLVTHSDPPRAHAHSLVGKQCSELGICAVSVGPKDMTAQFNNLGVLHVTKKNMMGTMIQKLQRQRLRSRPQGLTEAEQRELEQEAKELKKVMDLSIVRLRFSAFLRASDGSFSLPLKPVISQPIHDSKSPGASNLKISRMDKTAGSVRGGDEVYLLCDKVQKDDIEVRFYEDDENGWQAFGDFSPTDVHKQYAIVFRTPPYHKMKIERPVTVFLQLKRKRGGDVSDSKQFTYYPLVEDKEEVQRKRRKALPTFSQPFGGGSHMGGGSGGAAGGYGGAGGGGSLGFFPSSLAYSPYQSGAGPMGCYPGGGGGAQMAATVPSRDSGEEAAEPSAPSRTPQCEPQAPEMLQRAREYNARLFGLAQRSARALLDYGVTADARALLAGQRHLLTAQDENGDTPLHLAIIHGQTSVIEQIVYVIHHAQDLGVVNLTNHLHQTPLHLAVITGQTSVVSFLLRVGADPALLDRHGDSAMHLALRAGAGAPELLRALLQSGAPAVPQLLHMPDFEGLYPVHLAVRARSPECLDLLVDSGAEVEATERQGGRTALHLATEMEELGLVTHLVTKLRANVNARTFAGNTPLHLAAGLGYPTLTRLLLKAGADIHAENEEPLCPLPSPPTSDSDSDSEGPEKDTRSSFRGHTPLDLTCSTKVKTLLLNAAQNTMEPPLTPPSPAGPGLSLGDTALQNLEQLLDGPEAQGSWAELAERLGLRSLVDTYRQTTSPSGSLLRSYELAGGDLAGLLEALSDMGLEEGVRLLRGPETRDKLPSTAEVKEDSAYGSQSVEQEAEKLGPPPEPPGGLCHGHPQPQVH
T1 sequence (Q04206 whole entry, looked up): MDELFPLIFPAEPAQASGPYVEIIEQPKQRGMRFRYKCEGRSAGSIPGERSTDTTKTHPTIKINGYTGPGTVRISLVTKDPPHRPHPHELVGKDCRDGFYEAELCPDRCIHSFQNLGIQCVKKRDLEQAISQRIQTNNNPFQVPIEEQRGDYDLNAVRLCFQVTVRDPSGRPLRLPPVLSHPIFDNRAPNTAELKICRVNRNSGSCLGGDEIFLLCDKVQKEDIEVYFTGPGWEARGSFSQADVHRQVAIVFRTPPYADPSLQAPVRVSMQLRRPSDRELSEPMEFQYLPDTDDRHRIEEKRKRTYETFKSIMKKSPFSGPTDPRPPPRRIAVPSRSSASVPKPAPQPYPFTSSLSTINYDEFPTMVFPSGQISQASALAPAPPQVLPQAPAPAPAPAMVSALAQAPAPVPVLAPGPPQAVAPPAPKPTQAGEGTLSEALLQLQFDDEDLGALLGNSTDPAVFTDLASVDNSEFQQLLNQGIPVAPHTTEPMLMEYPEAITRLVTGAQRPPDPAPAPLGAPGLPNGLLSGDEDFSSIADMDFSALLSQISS

A549 [14] = test: Cell cycle arrest in human A549 cells assessed as accumulation at G0/G1 phase at 1.2 uM measured after 24 hrs by PI staining based Flow cytometry method (reference value: 55.54%); format: functional
A549 [15] = test: Induction of apoptosis in human A549 cells assessed as early apoptotic cells at 0.6 uM measured by annexinV-FITC/propidium iodide staining based flow cytometry analysis (reference value: 1.17%); format: functional
A549 [16] = test: Cell cycle arrest in human A549 cells assessed as accumulation at G2/M phase at 1.8 uM measured after 24 hrs by PI staining based Flow cytometry method (reference value: 10.2%); format: functional
[17] = biological target: T1, Nuclear factor NF-kappa-B complex (Homo sapiens); test: Inhibition of human NF-kB in human HCT-116 cells assessed as suppression of TNF-alpha induced TAK1 phosphorylation at 0.5 to 5 uM pretreated with compounds for 24 hrs followed by TNF-alpha stimulation for 10 mins by Western blot analysis; format: cell-based; conditions: dose 0.5-5 µM, time 1450.0 min
MAP3K7 [18] = test: Inhibition of human TAK1 in human A549 cells assessed as suppression of TNF-alpha induced TAK1 phosphorylation at 0.5 to 5 uM pretreated with compounds for 24 hrs followed by TNF-alpha stimulation for 10 mins by Western blot analysis; conditions: dose 0.5-5 µM, time 1450.0 min
A549 [19] = test: Induction of apoptosis in human A549 cells assessed as viable cells at 0.6 uM measured by annexinV-FITC/propidium iodide staining based flow cytometry analysis (reference value: 97.8%); format: functional; conditions: read-out: Activity
[20] = biological target: T1, Nuclear factor NF-kappa-B complex (Homo sapiens); test: Inhibition of human NF-kB in human A549 cells assessed as suppression of TNF-alpha induced IkBalpha expression at 0.5 to 5 uM pretreated with compounds for 24 hrs followed by TNF-alpha stimulation for 10 mins by Western blot analysis; format: cell-based; conditions: dose 0.5-5 µM, time 1450.0 min
[21] = biological target: T1, Nuclear factor NF-kappa-B complex (Homo sapiens); test: Inhibition of human NF-kB in human HCT-116 cells assessed as suppression of TNF-alpha induced IkBalpha phosphorylation at 0.5 to 5 uM pretreated with compounds for 24 hrs followed by TNF-alpha stimulation for 10 mins by Western blot analysis; format: cell-based; conditions: dose 0.5-5 µM, time 1450.0 min
HCT-116 [22] = test: Cytotoxicity against human HCT-116 cells assessed as inhibition of cell growth measured after 72 hrs by MTT assay; format: functional, cell-based; conditions: HCT-116, 72 h
[23] = biological target: T1, Nuclear factor NF-kappa-B complex (Homo sapiens); test: Inhibition of human NF-kB in human A549 cells assessed as suppression of TNF-alpha induced IkBalpha phosphorylation at 0.5 to 5 uM pretreated with compounds for 24 hrs followed by TNF-alpha stimulation for 10 mins by Western blot analysis; format: cell-based; conditions: dose 0.5-5 µM, time 1450.0 min
MAP3K7 [24] = test: Inhibition of human TAK1 in human A549 cells assessed as suppression of TNF-alpha induced TAK1 expression at 0.5 to 5 uM pretreated with compounds for 24 hrs followed by TNF-alpha stimulation for 10 mins by Western blot analysis; conditions: dose 0.5-5 µM, time 1450.0 min
A549 [25] = test: Cell cycle arrest in human A549 cells assessed as accumulation at G0/G1 phase at 0.6 uM measured after 24 hrs by PI staining based Flow cytometry method (reference value: 55.54%); format: functional
A549 [26] = test: Induction of apoptosis in human A549 cells assessed as early apoptotic cells at 1.2 uM measured by annexinV-FITC/propidium iodide staining based flow cytometry analysis (reference value: 1.17%); format: functional
[27] = biological target: T1, Nuclear factor NF-kappa-B complex (Homo sapiens); test: Inhibition of human NF-kB in human A549 cells assessed as suppression of TNF-alpha induced p-65 expression at 0.5 to 5 uM pretreated with compounds for 24 hrs followed by TNF-alpha stimulation for 10 mins by Western blot analysis; format: cell-based; conditions: dose 0.5-5 µM, time 1450.0 min
[28] = biological target: T1, Nuclear factor NF-kappa-B complex (Homo sapiens); test: Inhibition of human NF-kB in human HCT-116 cells assessed as suppression of TNF-alpha induced IkBalpha expression at 0.5 to 5 uM pretreated with compounds for 24 hrs followed by TNF-alpha stimulation for 10 mins by Western blot analysis; format: cell-based; conditions: dose 0.5-5 µM, time 1450.0 min
A549 [29] = test: Cytotoxicity against human A549 cells assessed as inhibition of cell growth measured after 72 hrs by MTT assay; format: functional, cell-based; conditions: Homo sapiens, A549, 72 h; read-out: IC50

## CNC(=O)c1cc(Oc2ccc(Nc3nccc(N4CCCCC4)n3)cc2)ccn1
A549 [1]
  viability at 1.2 µM: 80.6%
A549 [2]
  Activity: 23.56%
A549 [3]
  Activity: 0.75%
HCT-116 [4]
  Activity: 36.72%
A549 [5]
  Activity: 9.54%
TAK1-TAB1 fusion protein
  IC50: 580 nM
A549 [6]
  Activity: 0.71%
A549 [7]
  Activity: 25.4%
A549 [8]
  Activity: 52.78%
A549 [9]
  Activity: 16.65%
A549 [10]
  inhibition at 20 µM: 63.4%
A549 [11]
  Activity: 5.7%
A549 [12]
  Activity: 15.91%
[13]
  inhibition: Active
A549 [14]
  Activity: 57.49%
A549 [15]
  Activity: 8.16%
A549 [16]
  Activity: 30.57%
[17]
  inhibition: Active
MAP3K7 [18]
  inhibition: Active
A549 [19]
  viability at 0.6 µM: 87.6%
[20]
  inhibition: Active
[21]
  inhibition: Active
HCT-116 [22]
  IC50: 540 nM
[23]
  inhibition: Active
MAP3K7 [24]
  inhibition: Active
A549 [25]
  Activity: 60.53%
A549 [26]
  Activity: 12.9%
[27]
  inhibition: Active
[28]
  inhibition: Active
A549 [29]
  IC50: 890 nM
